Measured values reported in patent US5756478A, “Method for reducing toxicity of D-nucleoside analogs with L-nucleosides” (priority 1996, dated 1998).
Where “and” joins values, the source holds several entries; their conditions need not be identical. Identical values can stand only once. Entries after “also recorded” stand apart in the source; their conditions may differ. Like-named read-outs stand apart in the source and are kept apart here. Blank lines part the entries; values can stand above or below the molecule they belong to.

Assays:
Format in all cases: cell-based
[1] = system: HIV-1IIIB; assay: Anti-HIV combination of D- and L-nucleosides in HIV-1IIIB infected MT-2 cells (isobolograms); conditions: for Effect of L-nucleoside on ID50 of co-administered D-nucleoside: with AZT, D4T, ddC or DDI; for Nature of the anti-HIV combination effect with L-nucleosides (ID50): D-nucleoside co-administered with β-L-FddC, L(-)FTC, L(-)SddC or β-L-Fd4C
Protocol: (§1) The following anti-HIV drugs were tested in combination with the L-nucleosides β-L-5-fluoro-2',b 3'-dideoxycytidine [β-L-FddC or L(-)FddC], β-L-5-fluoro-2',3'-dideoxy-2',3'-didehydrocytidine [β-L-Fd4C or L(-)Fd4C], β-L-5-fluoro-2',3'-dideoxy-3'-thiacytidine [L(-)FTC] and β-L-2',3'-dideoxy-3'-thiacytidine [L(-)SddC or 3TC]: 3'-azido-3'deoxythymidine (AZT) as well as the β-D-2',3'-dideoxynucleosides, for example, β-D-2',3'-dideoxycytidine (ddC), β-D-2',3'-dideoxyadenosine, β-D-2',3'-dideoxyinosine (DDI) and β-D-2',3'-didehydro-3'-deoxy-thymidine (D4T). β-L-FddC and β-L-Fd4C was obtained following the method of Lin, et al., J. Med. Chem., 37, no. 6 (1994). L(-)FTC and L(-)SddC were prepared by standard literature procedures. See, for example, Jeong, et al. J. Med. Chem., 36, 181 (1993). AZT was obtained from Sigma Chemical Co., St. Louis, Mo., USA. ddC was obtained from Aldrich Chemical Co., Milwaukke, Wis. USA. DDI and D4T were obtained from Bristol-Myers Co., Wallingford, Conn., USA.
(§2) The above-mentioned drugs were tested using MT-2 cells infected with HIV-1IIIB as described by JW Mellers, et al., Molecular Pharm. 41, 446-451 (1991) with some modification. Briefly, triplicate wells of 96-well plates containing 1×10^4 MT-2 cells were infected with HIV-1IIIB at a multiplicity of infection (MOI) of 0.1 TCID50 per cell (TCID50 - 50% tissue culture infective dose). Serial dilutions of drug were added immediately after infection. Cell viability was quantitated 5 days after infection by the MTT-dye reduction model (Larder, et al. Antimicrob. Agents Chemother. 34, 436-441, 1990). The percentage of protection was calculated with the formula [(a-b/c-b)×100], in which a=the A595 of drug-treated, virus-infected well, b=A595 of no-drug infected wells, and c=A595 of no-drug, uninfected wells.
Isobolograms (FIGS. 1-2) were plotted as the percent change in the ID50 of β-L-FddC (L(-)FddC), L(-)FTC, L(-)SddC (FIGS. 1 and 2) β-L-Fd4C (L(-)Fd4C) at various concentrations in combination with AZT, D4T, ddC or DDI at varying concentations on the x-axis and vice versa on the y-axis. Isobolograms (FIG. 3) were plotted as the percent change in the ID50 of β-L-Fd4C (L(-)Fd4C) at various concentrations in combination with AZT or D4T at varying concentrations on the x-axis and vice-versa on the y-axis.

[2] = system: HIV-1IIIB; assay: Anti-HIV activity: protection of MT-2 cells infected with HIV-1IIIB (MTT-dye reduction); conditions: Human immunodeficiency virus 1, MT2, 120 h
Protocol: as §1, §2

[3] = system: CEM, a Human T-type lymphoblast tumor cell line; assay: Cell growth inhibition of CEM cells by D-nucleosides with or without L-nucleosides
Text: CEM, a Human T-type lymphoblast tumor cell line was used for this study. […] At the end of four days after the addition of the drug, the cell number was estimated by hemocytometer. […] The data, presented below in Table 1-3, are normalized against the control. The parenthetical values represent the expected effect the combined agents should have on cell growth.

[4] = MT-2 cells, HIV-1IIIB, MOI 0.1 TCID50 per cell, 5 days, read-out: ID50 (the source's name)
[5] = Homo sapiens, CCRF-CEM, 96 h, single agent, 50 uM, day 4, read-out: Day 4 Cell Growth - % of Control

IC50 [2, 4]: 0.09 µM
Compound: Nc1nc(=O)n([C@@H]2C=C[C@H](CO)O2)cc1F [β-L-Fd4C, β-L-5-fluoro-2',3'-dideoxy-2',3'-didehydrocytidine]
Effect of L-nucleoside on ID50 of co-administered D-nucleoside [1]: reduces the ID50 value of AZT, ddC, DDI and D4T; also recorded: decreases the ID50 of a co-administered D-nucleoside and vice versa

Compound: Cc1cn([C@H]2C=C[C@@H](CO)O2)c(=O)[nH]c1=O [D4T, β-D-2',3'-didehydro-3'-deoxy-thymidine]
Nature of the anti-HIV combination effect with L-nucleosides (ID50) [1]: synergistically; also recorded: synergistic
Day 4 Cell Growth - % of Control ([3]; 0.3 uM, in combination with 1 uM 3TC): 94 % of Control
Day 4 Cell Growth - % of Control ([3]; 0.3 uM, in combination with 1 uM (-) FTC): 84 % of Control
Day 4 Cell Growth - % of Control ([3]; 0.3 uM, in combination with 1 uM β-L-FddC): 86 % of Control
Day 4 Cell Growth - % of Control ([3]; 3.0 uM, in combination with 1 uM 3TC): 86 % of Control
Day 4 Cell Growth - % of Control ([3]; 3.0 uM, in combination with 1 uM (-) FTC): 75 % of Control
Day 4 Cell Growth - % of Control ([3]; 3.0 uM, in combination with 1 uM β-L-FddC): 75 % of Control
Day 4 Cell Growth - % of Control ([3]; 30 uM, in combination with 1 uM 3TC): 73 % of Control
Day 4 Cell Growth - % of Control ([3]; 30 uM, in combination with 1 uM (-) FTC): 65 % of Control
Day 4 Cell Growth - % of Control ([3]; 30 uM, in combination with 1 uM β-L-FddC): 68 % of Control
activity at 0.3 µM ([3]; Homo sapiens, CCRF-CEM, 96 h, single agent, 0.3 uM, day 4, read-out: Day 4 Cell Growth - % of Control): 98%
activity at 3 µM ([3]; Homo sapiens, CCRF-CEM, 96 h, single agent, 3.0 uM, day 4, read-out: Day 4 Cell Growth - % of Control): 84%
activity at 30 µM ([3]; Homo sapiens, CCRF-CEM, 96 h, single agent, 30 uM, day 4, read-out: Day 4 Cell Growth - % of Control): 70%
Day 4 Cell Growth - % of Control, expected effect of the combined agents (parenthetical) ([3]; 0.3 uM with 1 uM β-L-FddC): 82 % of Control
Day 4 Cell Growth - % of Control, expected effect of the combined agents (parenthetical) ([3]; 3.0 uM with 1 uM β-L-FddC): 71 % of Control
Day 4 Cell Growth - % of Control, expected effect of the combined agents (parenthetical) ([3]; 30 uM with 1 uM β-L-FddC): 59 % of Control
Day 4 Cell Growth - % of Control ([3]; single agent, 0.3 uM, 5760 min): 89 % of Control
Day 4 Cell Growth - % of Control ([3]; single agent, 3.0 uM, 5760 min): 80 % of Control
Day 4 Cell Growth - % of Control ([3]; single agent, 30 uM, 5760 min): 65 % of Control and 64 % of Control
IC50 ([2]; read-out: ID50): 6 µM

IC50 [2, 4]: 20 µM
Compound: O=c1[nH]cnc2c1ncn2C1CCC(CO)O1 [DDI, β-D-2',3'-dideoxyinosine]
Nature of the anti-HIV combination effect with L-nucleosides (ID50) [1]: additively; also recorded: additive
Day 4 Cell Growth - % of Control ([3]; 50 uM, in combination with 1 uM 3TC): 89 % of Control
Day 4 Cell Growth - % of Control ([3]; 50 uM, in combination with 1 uM (-) FTC): 84 % of Control
Day 4 Cell Growth - % of Control ([3]; 50 uM, in combination with 1 uM β-L-FddC): 84 % of Control
Day 4 Cell Growth - % of Control ([3]; 100 uM, in combination with 1 uM 3TC): 87 % of Control
Day 4 Cell Growth - % of Control ([3]; 100 uM, in combination with 1 uM (-) FTC): 80 % of Control
Day 4 Cell Growth - % of Control ([3]; 100 uM, in combination with 1 uM β-L-FddC): 80 % of Control
Day 4 Cell Growth - % of Control ([3]; 200 uM, in combination with 1 uM 3TC): 80 % of Control
Day 4 Cell Growth - % of Control ([3]; 200 uM, in combination with 1 uM (-) FTC): 75 % of Control
Day 4 Cell Growth - % of Control ([3]; 200 uM, in combination with 1 uM β-L-FddC): 75 % of Control
activity at 50 µM [3, 5]: 88%
activity at 100 µM ([3]; Homo sapiens, CCRF-CEM, 96 h, single agent, 100 uM, day 4, read-out: Day 4 Cell Growth - % of Control): 85%
activity at 200 µM ([3]; Homo sapiens, CCRF-CEM, 96 h, single agent, 200 uM, day 4, read-out: Day 4 Cell Growth - % of Control): 78%
Day 4 Cell Growth - % of Control, expected effect of the combined agents (parenthetical) ([3]; 50 uM with 1 uM (-) FTC): 74 % of Control
Day 4 Cell Growth - % of Control, expected effect of the combined agents (parenthetical) ([3]; 50 uM with 1 uM β-L-FddC): 74 % of Control
Day 4 Cell Growth - % of Control, expected effect of the combined agents (parenthetical) ([3]; 100 uM with 1 uM (-) FTC): 71 % of Control
Day 4 Cell Growth - % of Control, expected effect of the combined agents (parenthetical) ([3]; 100 uM with 1 uM β-L-FddC): 71 % of Control
Day 4 Cell Growth - % of Control, expected effect of the combined agents (parenthetical) ([3]; 200 uM with 1 uM (-) FTC): 65 % of Control
Day 4 Cell Growth - % of Control, expected effect of the combined agents (parenthetical) ([3]; 200 uM with 1 uM β-L-FddC): 65 % of Control
Day 4 Cell Growth - % of Control ([3]; single agent, 50 uM, 5760 min): 94 % of Control
Day 4 Cell Growth - % of Control ([3]; single agent, 100 uM, 5760 min): 89 % of Control
Day 4 Cell Growth - % of Control ([3]; single agent, 200 uM, 5760 min): 79 % of Control

IC50 ([2]; MT-2 cells, HIV-1IIIB, MOI 0.1 TCID50 per cell, 5 days, unit inferred, read-out: ID50 (the source's name)): 3 µM
Compound: Nc1ccn([C@@H]2CS[C@H](CO)O2)c(=O)n1 [L(-)SddC, β-L-2',3'-dideoxy-3'-thiacytidine]
Effect of L-nucleoside on ID50 of co-administered D-nucleoside [1]: reduces the ID50 value of AZT, ddC, DDI and D4T; also recorded: decreases the ID50 of a co-administered D-nucleoside and vice versa
activity at 0.1 µM ([3]; Homo sapiens, CCRF-CEM, 96 h, single agent, 0.1 uM, day 4, read-out: Day 4 Cell Growth - % of Control): 94%
activity at 1 µM ([3]; Homo sapiens, CCRF-CEM, 96 h, single agent, 1.0 uM, day 4, read-out: Day 4 Cell Growth - % of Control): 89%
activity at 10 µM ([3]; Homo sapiens, CCRF-CEM, 96 h, single agent, 10 uM, day 4, read-out: Day 4 Cell Growth - % of Control): 80%
activity at 50 µM [3, 5]: 76%
